The subject of one assay is HIV-1. Put plainly: microbe, parasite or virus in culture. The conditions noted are these: read-out: HIV1 CEM: EC50 for inhibition of HIV-1 in CEM cells. The procedure:
(§1) Cells were infected with HIV-1 as previously described [Balzarini et al. AIDS (1991), 5, 21–28]. Briefly, 5×10^5 cells per milliliter were infected with HIV-1 or HIV-2 at 100 CCID50 (50% cell culture infective dose) per milliliter of cell suspension. Then 100 μL of the infected cell suspension was transferred to microtiter plate wells and mixed with 100 μL of the appropriate dilutions of the test compounds. After 4 days giant cell formation was recorded microscopically in the HIV-infected cell cultures [CEM], and after 5 days the number of viable cells was determined by trypan blue staining of the HIV-infected cell cultures [MT4].
(§2) The data columns are, in order: • HIV1 MT4: EC50 in μM for inhibition of HIV-1 in MT4 cells. • HIV2 MT4: EC50 in μM for inhibition of HIV-2 in MT4 cells. • CC50 MT4: CC50 in μM for toxicity to MT-4 cells. • HIV1 CEM: EC50 in μM for inhibition of HIV-1 in CEM cells. • HIV2 CEM: EC50 in μM for inhibition of HIV-2 in CEM cells. • HIV2 CEM-TK-: EC50 in μM for inhibition of HIV-2 in CEM/TK^− cells. • CC50 CEM: CC50 in μM for toxicity to CEM cells. • EC50 MSV: EC50 in μM for inhibition of MSV • MCC MSV: Minimum cytotoxic concentration in MSV assay

Assay [1] has as its system HIV-2. The experiment in a line: Inhibition of HIV-2 in CEM cells (giant cell formation). It is filed as cell-based. The following applies: Table 6; mean of two or more repeat experiments; read-out: HIV2 CEM: EC50 for inhibition of HIV-2 in CEM cells. How it is done: as §1, §2
The subject of assay [2] is HIV-2. The experiment in a line: Inhibition of HIV-2 in CEM/TK- cells. The conditions noted are these: Table 6; mean of two or more repeat experiments; read-out: HIV2 CEM-TK-: EC50 for inhibition of HIV-2 in CEM/TK^− cells. Format: cell-based. How it is done: as §1, §2
Setting [3] is: Table 6, mean of two or more repeat experiments.

Drawing on patent publication US7018989B2, “Chemical compounds” (University College Cardiff Consultants, LTD, priority 1995, dated 2006), this text covers EC50 for 38 molecules.

Structures can show the parent of a compound that is named as a salt. Where two headings read alike, the source gives them in different places. Some results are limits rather than exact numbers.

As to `Cc1cn([C@H]2C=C[C@@H](CO)O2)c(=O)[nH]c1=O` [Compound 268, reference compound], the values for the EC50 in the assay on HIV-1 (setting [3]), in the assay on HIV-2 [1] and in the assay on HIV-2 [2] were 0.24 µM, 1.2 µM and more than 100 µM, respectively.

Turning to `COC(=O)C(NP(=O)(OCC1C=CC(n2cc(C)c(=O)[nH]c2=O)O1)OCC(Cl)(Cl)Cl)C(C)C` (stereo not drawn) [Compound 322], the EC50 with HIV-1 (setting [3]) was 29 µM; in the assay on HIV-2 [1], 71 µM; in the assay with HIV-2 [2] it was 59 µM.

Regarding `COC(=O)C(CCSC)NP(=O)(OCC1C=CC(n2cc(C)c(=O)[nH]c2=O)O1)OCC(Cl)(Cl)Cl` (stereo not drawn) [Compound 345], the EC50 in the assay on HIV-1 (setting [3]) was 8 µM; in the assay on HIV-2 [1], 11 µM; with HIV-2 [2], 10 µM.

Turning to `CCCNP(=O)(OCC1C=CC(n2cc(C)c(=O)[nH]c2=O)O1)OCC(Cl)(Cl)Cl` (stereo not drawn) [Compound 401], the EC50 in the assay on HIV-1 (setting [3]), with HIV-2 [1] and in the assay on HIV-2 [2] was more than 210 µM in each case.

`CCCCNP(=O)(OCC1C=CC(n2cc(C)c(=O)[nH]c2=O)O1)OCC(Cl)(Cl)Cl` (stereo not drawn) [Compound 402]: the EC50 in the assay on HIV-1 (setting [3]) was 118 µM; in the assay with HIV-2 [1], more than 204 µM; in the assay on HIV-2 [2], 161 µM.

On to `CCNP(=O)(OCC1C=CC(n2cc(C)c(=O)[nH]c2=O)O1)OCC(Cl)(Cl)Cl` (stereo not drawn) [Compound 403], for which the EC50 was more than 216 µM with HIV-1 (setting [3]), more than 216 µM with HIV-2 [1] and more than 218 µM in the assay with HIV-2 [2].

As for `CCCOP(=O)(OCC1C=CC(n2cc(C)c(=O)[nH]c2=O)O1)OCC(Cl)(Cl)Cl` (stereo not drawn) [Compound 404], the EC50 in the assay on HIV-1 (setting [3]), in the assay with HIV-2 [1] and in the assay with HIV-2 [2] was more than 209 µM in each case.

Regarding `Cc1cn(C2C=CC(COP(=O)(O)OCC(Cl)(Cl)Cl)O2)c(=O)[nH]c1=O` (stereo not drawn) [Compound 407], the EC50 in the assay on HIV-2 [1] is 0.5 µM; with HIV-2 [2] it was 86 µM.

Take `O=c1ccn([C@H]2C=C[C@@H](CO)O2)c(=O)[nH]1` [Compound 446, reference compound]: the EC50 with HIV-1 (setting [3]), in the assay on HIV-2 [1] and in the assay with HIV-2 [2] was more than 95 µM throughout.

For `Cc1cn(C2C=CC(CNP(=O)(OC(C)C)OC(C)C)O2)c(=O)[nH]c1=O` (stereo not drawn) [Compound 479], the EC50 with HIV-1 (setting [3]), in the assay on HIV-2 [1] and in the assay on HIV-2 [2] was more than 258 µM each time.

As to `CCCCNP(=O)(OCC1C=CC(n2cc(C)c(=O)[nH]c2=O)O1)OCC(F)(F)F` (stereo not drawn) [Compound 504], the results for the EC50 in the assay on HIV-1 (setting [3]), with HIV-2 [1] and in the assay on HIV-2 [2] were 73 µM, 116 µM and not below 226 µM, respectively.

For the molecule `COC(=O)C(C)NP(=O)(OCC1C=CC(n2ccc(=O)[nH]c2=O)O1)Oc1cccc(C(F)(F)F)c1` (stereo not drawn) [Compound 547], the EC50 was more than 3520 µM in the assay on HIV-1 (setting [3]), more than 7 µM with HIV-2 [1] and more than 35 µM with HIV-2 [2].

As to `CCOP(=O)(OCC)OCC1C=CC(n2ccc(=O)[nH]c2=O)O1` (stereo not drawn) [Compound 551], the EC50 with HIV-1 (setting [3]), in the assay with HIV-2 [1] and with HIV-2 [2] was more than 58 µM in each case.

Consider `COC(=O)C(C)NP(=O)(OCC1C=CC(n2ccc(=O)[nH]c2=O)O1)Oc1ccccc1` (stereo not drawn) [Compound 558], for which the EC50 with HIV-1 (setting [3]), in the assay on HIV-2 [1] and in the assay with HIV-2 [2] was more than 44 µM throughout.

`O=c1ccn(C2C=CC(COP(=O)(OCC(Cl)(Cl)Cl)OCC(Cl)(Cl)Cl)O2)c(=O)[nH]1` (stereo not drawn) [Compound 562]: the EC50 with HIV-1 (setting [3]), in the assay on HIV-2 [1] and in the assay on HIV-2 [2] was more than 36 µM in each case.

Consider `CCCNP(=O)(OCC)OCC1C=CC(n2cc(C)c(=O)[nH]c2=O)O1` (stereo not drawn) [Compound 563], for which the EC50 with HIV-1 (setting [3]), in the assay on HIV-2 [1] and with HIV-2 [2] was more than 268 µM each time.

As for `CC[C@H](C)[C@H](NP(=O)(OCC1C=CC(n2cc(C)c(=O)[nH]c2=O)O1)Oc1ccccc1)C(=O)OC` (stereo partly drawn) [Compound 1186, 2′,3′-dideoxy-2′,3′-didehydrothymidino 5′-(phenylmethoxyisoleucinyl phosphate)], the EC50 in the assay with HIV-1 (setting [3]) is 5 µM.

For the molecule `Cc1cn([C@H]2C=C[C@@H](COP(=O)(O)NC(Cc3ccccc3)C(=O)O)O2)c(=O)[nH]c1=O` (stereo partly drawn) [Compound 1187, 2′,3′-dideoxy-2′,3′-didehydrothymidine 5′-(phenylalaninyl phosphate)], the EC50 in the assay with HIV-1 (setting [3]) is 3.5 µM.

For the molecule `Cc1cn(C2C=CC(COP(=O)(NC(C)C(=O)OCC3CCCCC3)Oc3ccccc3)O2)c(=O)[nH]c1=O` (stereo not drawn) [Compound 1189], the EC50 with HIV-1 (setting [3]) amounted to 0.04 µM.

For `Cc1cn(C2C=CC(COP(=O)(O)NC(C(=O)O)C(C)C)O2)c(=O)[nH]c1=O` (stereo not drawn) [Compound 1190, 2′,3′-dideoxy-2′,3′-didehydrothymidine 5′-(valinyl phosphate)], in the assay with HIV-1 (setting [3]), the EC50 came out at 0.7 µM.

In the case of `Cc1cn(C2C=CC(COP(=O)(O)NC(CC(C)C)C(=O)O)O2)c(=O)[nH]c1=O` (stereo not drawn) [Compound 1192, 2′,3′-dideoxy-2′,3′-didehydrothymidine 5′-(leucinyl phosphate)], the EC50 with HIV-1 (setting [3]) amounted to 1.4 µM.

Take `Cc1cn(C2C=CC(COP(=O)(Oc3ccccc3)N3CCCC3C(=O)O)O2)c(=O)[nH]c1=O` (stereo not drawn) [Compound 1194, 2′,3′-dideoxy-2′,3′-didehydrothymidine 5′-(phenylprolinyl phosphate)]: the EC50 with HIV-1 (setting [3]) was 6 µM.

With `COC(=O)CCC(NP(=O)(OCC1C=CC(n2cc(C)c(=O)[nH]c2=O)O1)Oc1ccccc1)C(=O)OC` (stereo not drawn) [Compound 1196, 2′,3′-Dideoxy-2′,3′-didehydrothymidine-5′-(phenyldimethoxyglutaminyl phosphoramidate], the EC50 in the assay on HIV-1 (setting [3]) came to 1.2 µM.

Turning to `COC(=O)CCNP(=O)(OCC1C=CC(n2cc(C)c(=O)[nH]c2=O)O1)Oc1ccccc1` (stereo not drawn) [Compound 1197, 2′,3′-Dideoxy-2′,3′-didhydrothymidine-5′-(phenylmethoxy-B-alaninyl) phosphate], the EC50 in the assay with HIV-1 (setting [3]) was more than 250 µM.

Regarding `CCC(NP(=O)(OCC1C=CC(n2cc(C)c(=O)[nH]c2=O)O1)Oc1ccccc1)C(=O)OC` (stereo not drawn) [Compound 1198, 2′,3′-Dideoxy-2′,3′-didehydrothymidine-5′-(phenylmethoxy-α-aminobutylryl) phosphate], the EC50 in the assay with HIV-1 (setting [3]) was more than 250 µM.

With `COC(=O)CCCCCNP(=O)(OCC1C=CC(n2cc(C)c(=O)[nH]c2=O)O1)Oc1ccccc1` (stereo not drawn) [Compound 1199, 2′,3′-Dideoxy-2′,3′-didehydrothymidine-5′-(phenylmethoxy-6-aminocaproyl) phosphate], the EC50 in the assay on HIV-1 (setting [3]) is more than 250 µM.

For the molecule `COC(=O)C(C)(C)NP(=O)(OCC1C=CC(n2cc(C)c(=O)[nH]c2=O)O1)Oc1ccccc1` (stereo not drawn) [Compound 1200, 2′,3′-Dideoxy-2′,3′-didehydrothymidine-5′-(phenylmethoxy-2-aminoisobutylryl) phosphate], the EC50 in the assay on HIV-1 (setting [3]) is 0.12 µM.

`COC(=O)C[C@H](NP(=O)(OC[C@@H]1C=C[C@H](n2cc(C)c(=O)[nH]c2=O)O1)Oc1ccccc1)C(=O)OC` (stereo partly drawn) [Compound 1214, 2′,3′-Dideoxy-2′,3′-didehydrothymidine-5′-(phenyldimethoxyasparaginyl) phosphoramidate]: the EC50 in the assay with HIV-1 (setting [3]) turned out to be 0.6 µM.

`COC(=O)C(Cc1c[nH]c2ccccc12)NP(=O)(OC[C@@H]1C=C[C@H](n2cc(C)c(=O)[nH]c2=O)O1)Oc1ccccc1` (stereo partly drawn) [Compound 1215, 2′,3′-Dideoxy-2′,3′-didehydrothymidine-5′-(phenylmethoxytryptophanyl) phosphoramidate]: in the assay on HIV-1 (setting [3]), the EC50 was determined as 4 µM.

As for `Cc1cn(C2C=CC(COP(=O)(O)NCCC(=O)O)O2)c(=O)[nH]c1=O` (stereo not drawn) [Compound 1216, 2′,3′-Dideoxy-2′,3′-didehydrothymidine-5′-(β-alaninyl) phosphate ammonium salt], the EC50 in the assay on HIV-1 (setting [3]) was found to be 0.7 µM.

Regarding `CCCCCC(=O)OP(=O)(O)OC[C@@H]1C=C[C@H](n2cc(C)c(=O)[nH]c2=O)O1` [Compound 1217, 2′,3′-Dideoxy-2′,3′-didehydrothymidine-5′-(caproyl) phosphate ammonium salt], in the assay with HIV-1 (setting [3]), the EC50 is 1.4 µM.

In the case of `CCCCCOC(=O)C(C)NP(=O)(OCC1C=CC(n2cc(C)c(=O)[nH]c2=O)O1)Oc1ccccc1` (stereo not drawn) [Compound 1218], the EC50 with HIV-1 (setting [3]) was less than 0.08 µM.

Regarding `Cc1cn([C@H]2C=C[C@@H](COP(=O)(N[C@@H](C)C(=O)OCC(C)(C)C)Oc3ccccc3)O2)c(=O)[nH]c1=O` (stereo partly drawn) [Compound 1219], the EC50 in the assay on HIV-1 (setting [3]) was less than 0.08 µM.

Take `Cc1cn(C2C=CC(COP(=O)(NC(C)C(=O)OCCc3ccccc3)Oc3ccccc3)O2)c(=O)[nH]c1=O` (stereo not drawn) [Compound 1220]: in the assay on HIV-1 (setting [3]), the EC50 was 0.7 µM.

Turning to `Cc1cn([C@H]2C=C[C@@H](COP(=O)(O)OC(=O)CCCN)O2)c(=O)[nH]c1=O` [Compound 1224, 2′,3′-Dideoxy-2′,3′-didehydrothymidine-5′(γ-aminobutylryl) phosphate ammonium salt], in the assay on HIV-1 (setting [3]), the EC50 was 1 µM.

Regarding `Cc1cn(C2C=CC(COP(=O)(NC(C)C(=O)Oc3cccc4ccccc34)Oc3ccccc3)O2)c(=O)[nH]c1=O` (stereo not drawn) [Compound 1226], the EC50 in the assay with HIV-1 (setting [3]) was less than 0.08 µM.

In the case of `Cc1cn(C2C=CC(COP(=O)(NC(C)C(=O)Oc3ccc4ccccc4c3)Oc3ccccc3)O2)c(=O)[nH]c1=O` (stereo not drawn) [Compound 1227], in the assay with HIV-1 (setting [3]), the EC50 was less than 0.08 µM.

For `COC(=O)C(C)NP(=O)(OCC1CCC(n2cc(C)c(=O)[nH]c2=O)O1)Oc1ccccc1` (stereo not drawn) [Cpd 1225], the EC50 in the assay with HIV-1 (CEM cells, HIV-1) is 1.2 µM.
